Results on two compounds are retold here after US20150025120A1, “PYRAZOLE-ALCOHOL COMPOUNDS AND PHARMACEUTICAL USE THEREOF” (JAPAN TOBACCO INC., priority 2013, published 2015).

Molecules are shown by their SMILES.

The target of experiment [1] is T1, human PDHK1 (hPDHK1) (Homo sapiens, UniProt Q15118).
T1 construct: made in house; host or cells: Escherichia coli BL21(DE3), pET17b
The experiment can be described thus: Inhibitory action of PDHK1 activity in vitro (residual PDH activity after kinase reaction). Format: biochemical. The procedure: The inhibitory action of PDHK activity was assessed indirectly by measuring the residual PDH activity after kinase reaction in the presence of a test compound.
In the case of human PDHK1 (hPDHK1, Genbank Accession No. L42450.1), a 1.3 kbp fragment encoding this protein was isolated from human liver cDNA by polymerase chain reaction (PCR). Modified hPDHK1 cDNA wherein FLAG-Tag sequence was added to the N terminus was prepared by PCR and cloned into a vector (pET17b-Novagen). The recombinant construct was transformed into Escherichia coli (DH5α-TOYOBO). The recombinant clones were identified, and plasmid DNA was isolated and subjected to the DNA sequence analysis. One clone which had the expected nucleic acid sequence was selected for expression work. […]
Then, 10 μL of substrates (5 mmol/L sodium pyruvate, 5 mmol/L Coenzyme A, 12 mmol/L NAD, 5 mmol/L thiamin pyrophosphate, diluted with buffer) were added. The mixture was incubated at room temperature for 90 min, and the residual PDH activity was measured.
The absorbance at 340 nm before and after PDH reaction was measured using a microplate reader to detect NADH produced by the PDH reaction. The hPDHK1 inhibition rate (%) of the test compound was calculated from the formula [{(PDH activity of the test compound−PDH activity of control)/PDH activity of blank−PDH activity of control)}× 100].

The test system of experiment [2] is Zucker Diabetic Fatty rats. The experiment in a line: Effect of repeated administration of test compound on HbA1c in ZDF rats. Format: in vivo, rat. The following applies: 1 mg/kg orally once daily, mean ± standard deviation (n = 10). The protocol: Zucker Diabetic Fatty rats (male, 7-week-old, CHARLES RIVER LABORATORIES JAPAN INC.), an animal model for type 2 diabetes, given a purified diet (5.9% fat diet, Oriental Yeast Co., Ltd.) were allocated to the vehicle group and the test compound groups so that no bias occurred in the plasma glucose and insulin levels, HbA1c levels and body weights. Repeated oral doses of the test compound (1 mg/kg/5 mL) were administered to the rats once daily at 3 hr before the dark period. A 0.5% aqueous methylcellulose solution was orally administered in the same manner to the rats of the vehicle group. On day 14 or 21 of administration, blood samples were collected from the tail vein and HbA1c level (%) was measured. Statistical analysis was performed by Dunnett's test. Values of p<0.05 were considered statistically significant.

T1 sequence (Q15118 29-436): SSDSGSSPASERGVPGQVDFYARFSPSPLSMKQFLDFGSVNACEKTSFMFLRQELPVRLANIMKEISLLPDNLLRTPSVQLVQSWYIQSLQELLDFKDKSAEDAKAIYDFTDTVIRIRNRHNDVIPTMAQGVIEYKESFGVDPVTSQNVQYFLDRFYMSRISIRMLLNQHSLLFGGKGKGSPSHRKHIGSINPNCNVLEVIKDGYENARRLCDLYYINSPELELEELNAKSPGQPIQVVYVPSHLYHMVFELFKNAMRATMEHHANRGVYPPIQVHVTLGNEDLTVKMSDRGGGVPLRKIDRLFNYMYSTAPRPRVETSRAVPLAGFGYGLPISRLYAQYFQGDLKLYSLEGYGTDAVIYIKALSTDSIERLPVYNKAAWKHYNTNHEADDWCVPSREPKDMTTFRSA

Broadly, the IC50 is the midpoint of a concentration-inhibition curve. Read a low IC50 as higher potency. Consider `C[C@H](O)COc1cc(-c2cnn(CC(C)(C)O)c2)c2c(c1)[C@@](O)(C(F)(F)F)c1ccccc1-2` [compound (1), (9R)-4-[1-(2-hydroxy-2-methylpropyl)-1H-pyrazol-4-yl]-2-((2S)-2-hydroxypropoxy)-9-(trifluoromethyl)-9H-fluoren-9-ol], for which the IC50 in experiment [1] was determined as 28 nM. Moreover, the “HbAlc (%)” value in experiment [2] (day 21 of administration) stood at 3.6 ± 0.3%.
On to `CC(C)(O)COc1cc(-c2cnn(CC(C)(C)O)c2)c2c(c1)[C@@](O)(C(F)(F)F)c1ccccc1-2` [compound (2), (9R)-2-(2-hydroxy-2-methylpropoxy)-4-[1-(2-hydroxy-2-methylpropyl)-1H-pyrazol-4-yl]-9-(trifluoromethyl)-9H-fluoren-9-ol], for which the IC50 in experiment [1] came to 34 nM. Also, the “HbAlc (%)” value in experiment [2] (day 14 of administration) was determined as 3.5 ± 0.1 %.
